Measurements from ChEMBL document CHEMBL2163313, “Shape-based reprofiling of FDA-approved drugs for the H₁ histamine receptor” (J Med Chem, 2012).
Active and inactive are the calls of the source. The rule behind the calls is not given here.

Legend:
HeLa = assay: Antagonist activity at P2Y receptor in human HeLa cells assessed as inhibition of ATP-induced Ca2+ release at 100 uM by using fura-2AM-based fluorescence assay; assay type: functional, cell-based
Histamine H1 receptor [1] = target: Histamine H1 receptor (Rattus norvegicus, UniProt P31390); assay type: cell membranes, Sprague-Dawley, Brain, Membrane
Sequence of Histamine H1 receptor (Rattus norvegicus, UniProt P31390) (P31390 whole entry): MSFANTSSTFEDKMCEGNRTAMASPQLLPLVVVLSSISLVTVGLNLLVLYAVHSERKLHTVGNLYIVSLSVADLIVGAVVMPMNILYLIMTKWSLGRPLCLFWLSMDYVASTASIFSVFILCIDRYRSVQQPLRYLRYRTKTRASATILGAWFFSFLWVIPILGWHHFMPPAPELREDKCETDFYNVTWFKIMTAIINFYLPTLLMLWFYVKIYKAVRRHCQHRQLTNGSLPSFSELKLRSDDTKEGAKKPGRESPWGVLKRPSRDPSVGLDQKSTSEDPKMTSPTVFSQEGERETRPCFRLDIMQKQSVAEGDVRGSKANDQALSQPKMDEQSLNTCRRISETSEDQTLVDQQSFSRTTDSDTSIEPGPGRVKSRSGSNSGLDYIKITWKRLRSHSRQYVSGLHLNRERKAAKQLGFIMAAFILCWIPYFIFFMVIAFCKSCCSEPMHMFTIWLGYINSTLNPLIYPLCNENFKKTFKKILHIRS

Histamine H1 receptor [2] = target: T1, Histamine H1 receptor (Homo sapiens, UniProt P35367); assay: Antagonist activity at H1 receptor in human HeLa cells assessed as inhibition of histamine-induced Ca2+ release by using fura-2AM-based fluorescence assay; assay type: functional, cell-based
T1 sequence (P35367 whole entry): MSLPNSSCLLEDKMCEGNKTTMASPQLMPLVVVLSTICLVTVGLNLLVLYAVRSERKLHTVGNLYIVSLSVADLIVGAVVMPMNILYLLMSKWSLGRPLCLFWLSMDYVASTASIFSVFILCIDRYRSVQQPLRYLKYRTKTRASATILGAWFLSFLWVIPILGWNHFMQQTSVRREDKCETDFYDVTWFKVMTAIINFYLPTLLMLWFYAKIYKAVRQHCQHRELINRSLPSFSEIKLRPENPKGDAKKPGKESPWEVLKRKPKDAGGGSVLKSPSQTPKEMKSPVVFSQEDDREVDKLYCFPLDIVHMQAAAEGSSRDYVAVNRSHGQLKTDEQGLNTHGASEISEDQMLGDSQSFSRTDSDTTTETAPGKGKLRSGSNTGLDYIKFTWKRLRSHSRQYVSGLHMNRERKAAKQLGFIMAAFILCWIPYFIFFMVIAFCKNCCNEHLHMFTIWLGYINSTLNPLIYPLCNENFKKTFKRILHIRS

Histamine H1 receptor [3] = target: T1, Histamine H1 receptor; assay: Antagonist activity at histamine H1 receptor in human HeLa cells assessed as inhibition of histamine-induced Ca2+ release at 100 uM by using fura-2AM-based fluorescence assay; assay type: functional, cell-based

SMILES	inhibition (HeLa)	IC50 (Histamine H1 receptor [1]) [µM]	IC50 (Histamine H1 receptor [2]) [µM]	inhibition (Histamine H1 receptor [3])
NC(=O)OCC(COC(N)=O)c1ccccc1	inactive			
OC(CCN1CCCC1)(c1ccccc1)C1CCCCC1 (centres undefined) [PROCYCLIDINE]		6.76		
CN1[C@@H](CC(=O)c2ccccc2)CCC[C@H]1C[C@H](O)c1ccccc1 [LOBELINE]		11.2	44.7	
CCN(CC)CCOC(=O)C(c1ccccc1)c1ccccc1 [ADIPHENINE]		17	112	
OC(CCN1CCCCC1)(c1ccccc1)C1CC2C=CC1C2 (centres undefined)	Active			Active
CN(C)CC/C=C1/c2ccccc2Sc2ccc(Cl)cc21 [CHLORPROTHIXENE]		0.00107		
